Holding throughout (assay type): functional, cell-based
For one assay, the system named is HCT-116. The assay is described as follows: Antiproliferative activity against human HCT-116 cells assessed as reduction in cell viability incubated for 24 hrs by MTT assay. Particulars: HCT-116, 24 h.
In another assay the test system is MCF7. The assay is described as follows: Antiproliferative activity against human MCF7 cells assessed as reduction in cell viability incubated for 24 hrs by MTT assay. The conditions noted are these: MCF7, 24 h. For orientation: Tetrazolium assays rely on reduction of a dye to a coloured formazan, in cell work by metabolically active cells.
Another assay relates to HT-29. The experiment in a line: Antiproliferative activity against human HT-29 cells assessed as reduction in cell viability incubated for 24 hrs by MTT assay. Particulars: HT-29, 24 h.
Another assay concerns HepG2. The experiment in a line: Antiproliferative activity against human HepG2 cells assessed as reduction in cell viability incubated for 24 hrs by MTT assay. Particulars: HepG2, 24 h.

As usually defined, the IC50 is the concentration at which inhibition is half-maximal.

Regarding `CC(=O)O[C@H]1C=C([C@H](C)[C@H]2CC(C)=C(C)C(=O)O2)[C@@]2(C)CC[C@H]3[C@@H](C[C@H]4O[C@]45[C@@H](O)C(n4ccnc4)CC(=O)[C@]35C)[C@]12O` (stereo partly specified), the IC50 in the assay on HCT-116, with MCF7, in the assay with HT-29 and in the assay on HepG2 was > 20000 nM throughout.
For `CCOC(=O)/C=C/C(=O)O[C@H]1C=CC(=O)[C@]2(C)[C@H]3CC[C@]4(C)C([C@H](C)[C@H]5CC(C)=C(C)C(=O)O5)=C[C@H](OC(C)=O)[C@@]4(O)[C@@H]3C[C@H]3O[C@]132`, the concentration for half-maximal inhibition (IC50) came to 250 nM in the assay with HCT-116, 280 nM in the assay on MCF7, 230 nM in the assay with HT-29 and 240 nM in the assay on HepG2.
Take `CC(=O)O[C@H]1C=C([C@H](C)[C@H]2CC(C)=C(C)C(=O)O2)[C@@]2(C)CC[C@H]3[C@@H](C[C@H]4O[C@]45[C@@H](OC(=O)/C=C/C(=O)N4CCCCC4)C=CC(=O)[C@]35C)[C@]12O`: the half-maximal inhibitory concentration (IC50) with HCT-116 is 160 nM; in the assay with MCF7, 610 nM; with HT-29, 370 nM; in the assay with HepG2, 310 nM.
The like results for `CCN(C)C(=O)O[C@H]1C=CC(=O)[C@]2(C)[C@H]3CC[C@]4(C)C([C@H](C)[C@H]5CC(C)=C(C)C(=O)O5)=C[C@H](OC(C)=O)[C@@]4(O)[C@@H]3C[C@H]3O[C@]132` were, in that order, 1970 nM, 1790 nM, 1780 nM and 2370 nM.
Consider `CC(=O)O[C@H]1C=C([C@H](C)[C@H]2CC(C)=C(C)C(=O)O2)[C@@]2(C)CC[C@H]3[C@@H](C[C@H]4O[C@]45[C@@H](OC(C)=O)C=CC(=O)[C@]35C)[C@]12O`, for which the half-maximal inhibitory concentration (IC50) in the assay on HCT-116 was found to be 600 nM; in the assay on MCF7, 3050 nM; in the assay with HT-29 it was 800 nM; in the assay on HepG2, 1570 nM.
As for `CC(=O)O[C@H]1C=C([C@H](C)[C@H]2CC(C)=C(C)C(=O)O2)[C@@]2(C)CC[C@H]3[C@@H](C[C@H]4O[C@]45[C@@H](OC(=O)C=C(C)C)C=CC(=O)[C@]35C)[C@]12O`, the half-inhibitory concentration (IC50) with HCT-116 is 280 nM; in the assay with MCF7, 750 nM; in the assay with HT-29, 460 nM; in the assay with HepG2, 260 nM.
The like results for `CC(=O)O[C@H]1C=C([C@H](C)[C@H]2CC(C)=C(C)C(=O)O2)[C@@]2(C)CC[C@H]3[C@@H](C[C@H]4O[C@]45[C@@H](O[Si](C)(C)C(C)(C)C)C=CC(=O)[C@]35C)[C@]12O` were, in that order, 1770 nM, 6140 nM, 1060 nM and 3010 nM.
With `CC(=O)O[C@H]1C=C([C@H](C)[C@H]2CC(C)=C(C)C(=O)O2)[C@@]2(C)CC[C@H]3[C@@H](C[C@H]4O[C@]45[C@@H](OC(=O)/C=C/C(=O)N(C(C)C)C(C)C)C=CC(=O)[C@]35C)[C@]12O`, the half-maximal inhibitory concentration (IC50) in the assay on HCT-116 turned out to be 350 nM; in the assay with MCF7, 620 nM; with HT-29, 190 nM; in the assay on HepG2, 360 nM.
The corresponding values for `CCC(=O)O[C@H]1C=CC(=O)[C@]2(C)[C@H]3CC[C@]4(C)C([C@H](C)[C@H]5CC(C)=C(C)C(=O)O5)=C[C@H](OC(C)=O)[C@@]4(O)[C@@H]3C[C@H]3O[C@]132` are 570 nM, 4810 nM, 1080 nM and 1660 nM.
The like results for `CC(=O)O[C@H]1C=C([C@H](C)[C@H]2CC(C)=C(C)C(=O)O2)[C@@]2(C)CC[C@H]3[C@@H](C[C@H]4O[C@]45[C@@H](OC(=O)N4CCCCC4)C=CC(=O)[C@]35C)[C@]12O` were, in that order, 730 nM, 4310 nM, 1380 nM and 410 nM.
For the compound `CC(=O)O[C@H]1C=C([C@H](C)[C@H]2CC(C)=C(C)C(=O)O2)[C@@]2(C)CC[C@H]3[C@@H](C[C@H]4O[C@]45[C@@H](OC(=O)C4CCCN4C(=O)OC(C)(C)C)C=CC(=O)[C@]35C)[C@]12O` (stereo partly specified), the IC50 turned out to be 670 nM in the assay on HCT-116, 2100 nM in the assay on MCF7, 1010 nM with HT-29 and 1060 nM in the assay with HepG2.
The corresponding values for `CC(=O)O[C@H]1[C@@H]2O[C@]2([C@H](C)[C@H]2CC(C)=C(C)C(=O)O2)[C@@]2(C)CC[C@H]3[C@@H](C[C@H]4O[C@]45[C@@H](O)C=CC(=O)[C@]35C)[C@]12O` are 5040 nM, 9360 nM, 4550 nM and 4660 nM.
Consider `CC(=O)O[C@H]1C=C([C@H](C)[C@H]2CC(C)=C(C)C(=O)O2)[C@@]2(C)CC[C@H]3[C@@H](C[C@H]4O[C@]45[C@@H](OC(=O)c4cccs4)C=CC(=O)[C@]35C)[C@]12O`, for which the IC50 with HCT-116 came out at 3870 nM; in the assay with MCF7 it was 4080 nM; in the assay on HT-29, 2390 nM; in the assay on HepG2, 2910 nM.
With `CC(=O)O[C@H]1C=C([C@H](C)[C@H]2CC(C)=C(C)C(=O)O2)[C@@]2(C)CC[C@H]3[C@@H](C[C@H]4O[C@]45[C@@H](OC(=O)C(NC(=O)OC(C)(C)C)C(C)C)C=CC(=O)[C@]35C)[C@]12O` (stereo partly specified), the IC50 was found to be 600 nM in the assay with HCT-116, 3050 nM with MCF7, 800 nM in the assay with HT-29 and 1570 nM in the assay on HepG2.
`CC(=O)O[C@H]1C=C([C@H](C)[C@H]2CC(C)=C(C)C(=O)O2)[C@@]2(C)CC[C@H]3[C@@H](C[C@H]4O[C@]45[C@@H](OC(=O)/C=C/c4ccccc4)C=CC(=O)[C@]35C)[C@]12O`: the IC50 in the assay with HCT-116 turned out to be 1230 nM; with MCF7 it was 1710 nM; with HT-29, 770 nM; with HepG2, 700 nM.
As to `CC(=O)O[C@H]1C=C([C@H](C)[C@H]2CC(C)=C(C)C(=O)O2)[C@@]2(C)CC[C@H]3[C@@H](C[C@H]4O[C@]45[C@@H](OC(=O)N(C)C)C=CC(=O)[C@]35C)[C@]12O`, the IC50 in the assay with HCT-116 amounted to 670 nM; in the assay on MCF7 it was 2100 nM; in the assay on HT-29, 1010 nM; in the assay with HepG2, 1060 nM.
The like results for `CC(=O)O[C@H]1C=C([C@H](C)[C@H]2CC(C)=C(C)C(=O)O2)[C@@]2(C)CC[C@H]3[C@@H](C[C@H]4O[C@]45[C@@H](OC(=O)/C=C/C(=O)N4CCOCC4)C=CC(=O)[C@]35C)[C@]12O` were, in that order, 460 nM, 760 nM, 430 nM and 370 nM.
The corresponding values for `CC(=O)O[C@H]1C=C([C@H](C)[C@H]2CC(C)=C(C)C(=O)O2)[C@@]2(C)CC[C@H]3[C@@H](C[C@H]4O[C@]45[C@@H](OC(=O)/C=C/C(=O)N4CCCC4)C=CC(=O)[C@]35C)[C@]12O` are 200 nM, 380 nM, 250 nM and 290 nM.
On to `COC(=O)O[C@H]1C=CC(=O)[C@]2(C)[C@H]3CC[C@]4(C)C([C@H](C)[C@H]5CC(C)=C(C)C(=O)O5)=C[C@H](OC(C)=O)[C@@]4(O)[C@@H]3C[C@H]3O[C@]132`, for which the IC50 in the assay with HCT-116 was found to be 1950 nM; in the assay on MCF7 it was 4330 nM; in the assay with HT-29, 1790 nM; in the assay with HepG2, 2810 nM.

The values above are taken from ChEMBL document CHEMBL4665792 (J Med Chem, 2020).
